From PubChem BioAssay (NCI)
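GI50 marks 50% less growth. TGI denotes the concentration required for complete inhibition of growth.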

Legend:
Experiment in all cases: growth of human tumour cells (NCI), 384-well format
OVCAR-3 ovarian = test system: OVCAR-3 ovarian
SF-268 CNS = test system: SF-268 CNS
KM12 colon = test system: KM12 colon
HS 578T breast = test system: HS 578T breast
SNB-75 CNS = test system: SNB-75 CNS
UO-31 renal = test system: UO-31 renal
ACHN renal = test system: ACHN renal
HCT-15 colon = test system: HCT-15 colon
UACC-257 melanoma = test system: UACC-257 melanoma
SF-539 CNS = test system: SF-539 CNS
NCI-H23 lung = test system: NCI-H23 lung
OVCAR-4 ovarian = test system: OVCAR-4 ovarian
HL-60(TB) leukemia = test system: HL-60(TB) leukemia
RXF 393 renal = test system: RXF 393 renal
UACC-62 melanoma = test system: UACC-62 melanoma
IGROV1 ovarian = test system: IGROV1 ovarian
RPMI-8226 leukemia = test system: RPMI-8226 leukemia
HCC-2998 colon = test system: HCC-2998 colon
SN12C renal = test system: SN12C renal
MDA-MB-435 melanoma = test system: MDA-MB-435 melanoma
BT-549 breast = test system: BT-549 breast
SK-MEL-28 melanoma = test system: SK-MEL-28 melanoma
SR leukemia = test system: SR leukemia
M14 melanoma = test system: M14 melanoma
MOLT-4 leukemia = test system: MOLT-4 leukemia
NCI-H460 NSCLC = test system: NCI-H460 NSCLC
CAKI-1 renal = test system: CAKI-1 renal
T-47D breast = test system: T-47D breast
SK-MEL-5 melanoma = test system: SK-MEL-5 melanoma
COLO 205 colon = test system: COLO 205 colon
NCI-H522 lung = test system: NCI-H522 lung
CCRF-CEM leukemia = test system: CCRF-CEM leukemia
MDA-MB-468 breast = test system: MDA-MB-468 breast
EKVX NSCLC = test system: EKVX NSCLC
NCI-H322M lung = test system: NCI-H322M lung
MALME-3M melanoma = test system: MALME-3M melanoma
NCI/ADR-RES ovarian = test system: NCI/ADR-RES ovarian
SNB-19 CNS = test system: SNB-19 CNS
K-562 leukemia = test system: K-562 leukemia
LOX IMVI melanoma = test system: LOX IMVI melanoma
DU-145 prostate = test system: DU-145 prostate
SF-295 CNS = test system: SF-295 CNS
HOP-92 NSCLC = test system: HOP-92 NSCLC
NCI-H226 lung = test system: NCI-H226 lung
MDA-MB-231 breast = test system: MDA-MB-231 breast
786-0 renal = test system: 786-0 renal
MCF7 breast = test system: MCF7 breast
HOP-62 NSCLC = test system: HOP-62 NSCLC
PC-3 prostate = test system: PC-3 prostate
OVCAR-8 ovarian = test system: OVCAR-8 ovarian
OVCAR-5 ovarian = test system: OVCAR-5 ovarian
SW-620 colon = test system: SW-620 colon
A549 NSCLC = test system: A549 NSCLC
TK-10 renal = test system: TK-10 renal

CC(=O)N[C@@H]1CCC[C@H](C(=O)Nc2cc(-c3cnn4c3CC(C)(C)C4)c(Cl)cn2)C1
GI50 (OVCAR-3 ovarian): < 10 nM
TGI (OVCAR-3 ovarian): < 10 nM
GI50 (SF-268 CNS): < 10 nM
TGI (SF-268 CNS): < 10 nM
GI50 (KM12 colon): < 10 nM
TGI (KM12 colon): < 10 nM
GI50 (HS 578T breast): < 10 nM
TGI (HS 578T breast): < 10 nM
GI50 (SNB-75 CNS): < 10 nM
TGI (SNB-75 CNS): 26.7 nM
GI50 (UO-31 renal): 24.5 nM
TGI (UO-31 renal): > 100000 nM
GI50 (ACHN renal): < 10 nM
TGI (ACHN renal): > 100000 nM
GI50 (HCT-15 colon): < 10 nM
TGI (HCT-15 colon): 21800 nM
GI50 (UACC-257 melanoma): < 10 nM
TGI (UACC-257 melanoma): 21.9 nM
GI50 (SF-539 CNS): < 10 nM
TGI (SF-539 CNS): < 10 nM
GI50 (NCI-H23 lung): < 10 nM
TGI (NCI-H23 lung): 10.3 nM
GI50 (OVCAR-4 ovarian): < 10 nM
TGI (OVCAR-4 ovarian): 18.3 nM
GI50 (HL-60(TB) leukemia): < 10 nM
TGI (HL-60(TB) leukemia): < 10 nM
GI50 (RXF 393 renal): < 10 nM
TGI (RXF 393 renal): < 10 nM
GI50 (UACC-62 melanoma): < 10 nM
TGI (UACC-62 melanoma): < 10 nM
GI50 (IGROV1 ovarian): < 10 nM
TGI (IGROV1 ovarian): > 100000 nM
GI50 (RPMI-8226 leukemia): < 10 nM
TGI (RPMI-8226 leukemia): < 10 nM
GI50 (HCC-2998 colon): < 10 nM
TGI (HCC-2998 colon): 13.9 nM
GI50 (SN12C renal): < 10 nM
TGI (SN12C renal): 14 nM
GI50 (MDA-MB-435 melanoma): < 10 nM
TGI (MDA-MB-435 melanoma): 44.3 nM
GI50 (BT-549 breast): < 10 nM
TGI (BT-549 breast): < 10 nM
GI50 (SK-MEL-28 melanoma): < 10 nM
TGI (SK-MEL-28 melanoma): 11.4 nM
GI50 (SR leukemia): < 10 nM
TGI (SR leukemia): < 10 nM
GI50 (M14 melanoma): < 10 nM
TGI (M14 melanoma): < 10 nM
GI50 (MOLT-4 leukemia): < 10 nM
TGI (MOLT-4 leukemia): < 10 nM
GI50 (NCI-H460 NSCLC): < 10 nM
TGI (NCI-H460 NSCLC): 313 nM
GI50 (CAKI-1 renal): < 10 nM
TGI (CAKI-1 renal): > 100000 nM
GI50 (T-47D breast): < 10 nM
TGI (T-47D breast): > 100000 nM
GI50 (SK-MEL-5 melanoma): < 10 nM
TGI (SK-MEL-5 melanoma): < 10 nM
GI50 (COLO 205 colon): < 10 nM
TGI (COLO 205 colon): < 10 nM
GI50 (NCI-H522 lung): 14.8 nM
TGI (NCI-H522 lung): 36 nM
GI50 (CCRF-CEM leukemia): < 10 nM
TGI (CCRF-CEM leukemia): < 10 nM
GI50 (MDA-MB-468 breast): < 10 nM
TGI (MDA-MB-468 breast): < 10 nM
GI50 (EKVX NSCLC): < 10 nM
TGI (EKVX NSCLC): 39.6 nM
GI50 (NCI-H322M lung): < 10 nM
TGI (NCI-H322M lung): < 10 nM
GI50 (MALME-3M melanoma): < 10 nM
TGI (MALME-3M melanoma): 14.4 nM
GI50 (NCI/ADR-RES ovarian): 152 nM
TGI (NCI/ADR-RES ovarian): 620 nM
GI50 (SNB-19 CNS): < 10 nM
TGI (SNB-19 CNS): > 100000 nM

COc1cc(OC)c(/C=C/S(=O)(=O)Cc2ccc(OC)c(NCC(=O)O)c2)c(OC)c1
GI50 (OVCAR-3 ovarian): 16.8 nM
TGI (OVCAR-3 ovarian): 38.2 nM
GI50 (SF-268 CNS): 51 nM
TGI (SF-268 CNS): 2040 nM
GI50 (HS 578T breast): 15.4 nM
TGI (HS 578T breast): 34.7 nM
GI50 (K-562 leukemia): 32.4 nM
TGI (K-562 leukemia): 109 nM
GI50 (SNB-75 CNS): 35.1 nM
TGI (SNB-75 CNS): 211 nM
GI50 (LOX IMVI melanoma): 45.7 nM
TGI (LOX IMVI melanoma): 362 nM
GI50 (UO-31 renal): 86.2 nM
TGI (UO-31 renal): > 100000 nM
GI50 (DU-145 prostate): 177 nM
TGI (DU-145 prostate): 1040 nM
GI50 (SF-295 CNS): 23.1 nM
TGI (SF-295 CNS): 57.6 nM
GI50 (ACHN renal): 58.9 nM
TGI (ACHN renal): > 100000 nM
GI50 (HCT-15 colon): 32.3 nM
TGI (HCT-15 colon): 373 nM
GI50 (UACC-257 melanoma): 17.7 nM
TGI (UACC-257 melanoma): 370 nM
GI50 (HOP-92 NSCLC): 38.5 nM
TGI (HOP-92 NSCLC): 4170 nM
GI50 (SF-539 CNS): 20.8 nM
TGI (SF-539 CNS): 50.8 nM
GI50 (NCI-H23 lung): 24.9 nM
TGI (NCI-H23 lung): 77.4 nM
GI50 (OVCAR-4 ovarian): 24.6 nM
TGI (OVCAR-4 ovarian): 95.5 nM
GI50 (HL-60(TB) leukemia): 33.6 nM
TGI (HL-60(TB) leukemia): 101 nM
GI50 (RXF 393 renal): 16.8 nM
TGI (RXF 393 renal): 49.4 nM
GI50 (IGROV1 ovarian): 60.4 nM
TGI (IGROV1 ovarian): > 100000 nM
GI50 (RPMI-8226 leukemia): 19 nM
TGI (RPMI-8226 leukemia): 37.5 nM
GI50 (NCI-H226 lung): 38.3 nM
TGI (NCI-H226 lung): > 100000 nM
GI50 (HCC-2998 colon): 40.5 nM
TGI (HCC-2998 colon): 264 nM
GI50 (MDA-MB-231 breast): 92.9 nM
TGI (MDA-MB-231 breast): > 100000 nM
GI50 ([…]-0 renal): 30.7 nM
TGI (786-0 renal): 607 nM
GI50 (SN12C renal): 63.8 nM
TGI (SN12C renal): > 100000 nM
GI50 (MDA-MB-435 melanoma): 17.1 nM
TGI (MDA-MB-435 melanoma): 36.6 nM
GI50 (BT-549 breast): 48.1 nM
TGI (BT-549 breast): 344 nM
GI50 (SK-MEL-28 melanoma): 63.7 nM
TGI (SK-MEL-28 melanoma): > 100000 nM
GI50 (MCF7 breast): 47.3 nM
TGI (MCF7 breast): 26000 nM
GI50 (SR leukemia): 16.1 nM
TGI (SR leukemia): 31.6 nM
GI50 (M14 melanoma): 25.9 nM
TGI (M14 melanoma): 82.7 nM
GI50 (HOP-62 NSCLC): 42.6 nM
TGI (HOP-62 NSCLC): > 100000 nM
GI50 (MOLT-4 leukemia): 64.1 nM
TGI (MOLT-4 leukemia): 187 nM
GI50 (NCI-H460 NSCLC): 22.6 nM
TGI (NCI-H460 NSCLC): 59.3 nM
GI50 (CAKI-1 renal): 46 nM
TGI (CAKI-1 renal): > 100000 nM
GI50 (PC-3 prostate): 31.5 nM
TGI (PC-3 prostate): > 100000 nM
GI50 (OVCAR-8 ovarian): 30.3 nM
TGI (OVCAR-8 ovarian): 93.8 nM
GI50 (SK-MEL-5 melanoma): 19.5 nM
TGI (SK-MEL-5 melanoma): 45.8 nM
GI50 (COLO 205 colon): 215 nM
TGI (COLO 205 colon): 537 nM
GI50 (NCI-H522 lung): 14.4 nM
TGI (NCI-H522 lung): 33 nM
GI50 (CCRF-CEM leukemia): 49.4 nM
TGI (CCRF-CEM leukemia): 157 nM
GI50 (MDA-MB-468 breast): 17.5 nM
TGI (MDA-MB-468 breast): 42.3 nM
GI50 (OVCAR-5 ovarian): 135 nM
TGI (OVCAR-5 ovarian): > 100000 nM
GI50 (EKVX NSCLC): 41.1 nM
TGI (EKVX NSCLC): > 100000 nM
GI50 (NCI-H322M lung): 90.9 nM
TGI (NCI-H322M lung): > 100000 nM
GI50 (MALME-3M melanoma): 25.9 nM
TGI (MALME-3M melanoma): 92.9 nM
GI50 (SW-620 colon): 33.8 nM
TGI (SW-620 colon): > 100000 nM
GI50 (A549 NSCLC): 61.3 nM
TGI (A549 NSCLC): > 100000 nM
GI50 (TK-10 renal): 50.9 nM
TGI (TK-10 renal): > 100000 nM
GI50 (NCI/ADR-RES ovarian): 16.4 nM
TGI (NCI/ADR-RES ovarian): 36.4 nM
GI50 (SNB-19 CNS): 43.9 nM
TGI (SNB-19 CNS): > 100000 nM
